Test results as given in patent publication US9950993B2 (Rutgers, The State University of New Jersey, priority 2015, dated 2018).

System: Escherichia coli W4573
Assay: Test A: MIC-based assay for efflux pump inhibition (enhancement of minocycline MIC)
Type: cell-based
Conditions: ratio of minocycline MIC in absence to MIC in presence of test compound, test compound at 12.5 ug/ml (27-48 μM)
Experimental: Test A. Minimum Inhibitory Concentration (MIC)-Based Assay for Efflux Pump Inhibition:
MIC-based assays were used to evaluate the impact of potential efflux pump inhibiting (EPI) compounds on the MIC of minocycline, an antibiotic known to be a substrate for Gram-negative bacterial efflux pumps. The assays were conducted in accordance with Clinical and Laboratory Standards Institute (CLSI) guidelines for broth microdilution, with the modification that assays were conducted in the presence and absence of the test EPI compounds. When present, the EPI compounds were added to cation-adjusted Mueller-Hinton (CAMH) broth (Becton, Dickinson and Co., Franklin Lakes, N.J.) at a final concentration of 12.5 µg/mL.
Log-phase Gram-negative bacteria were added to 96-well microtiter plates (at 5×10^5 colony forming units (CFU) per mL) containing two-fold serial dilutions of minocycline in CAMH broth either in the absence or presence of the test EPI compounds. In all assays, each serial dilution of minocycline was present in duplicate. The final volume in each well was 0.1 mL, and the microtiter plates were incubated aerobically for 24 hours at 37° C. Bacterial growth was then monitored by measuring the optical density (OD) at 600 nm using a VersaMax® plate reader (Molecular Devices, Inc., Sunnyvale, Calif.), with the MIC being defined as the lowest compound concentration at which growth was ≥90% inhibited compared to antibiotic-free control. The following Gram-negative bacterial strains were included in these assays:
Escherichia coli W4573, ATCC 25922, and ATCC BAA-201 (an extended spectrum […] (ESBL)-producing strain that expresses the TEM-3 β-lactamase).
The efflux pump mutant E. coli strain N43 (acrA1) was used as a positive control.
The enhancement is the ratio of the minocycline MIC in the absence of test compound to the minocycline MIC in the presence of test compound.

| SMILES | Enhancement |
| --- | --- |
| NCCC[C@H](N)CNC(=O)C(CCc1ccccc1)CCc1ccccc1 [Example 1, (S)—N-(2,5-diaminopentyl)-2-phenethyl-4-phenylbutanamide] | 8 |
| NCCC[C@H](N)CNC(=O)CC(c1ccccc1)c1ccccc1 [Example 9, (S)—N-(2,5-diaminopentyl)-3,3-diphenylpropanamide] | 8 |
| NCCC[C@H](N)CNC(=O)C(Cc1ccccc1)Cc1ccccc1 [Example 7, (S)-2-benzyl-N-(2,5-diaminopentyl)-3-phenylpropanamide] | 8 |
| NCC[C@H](N)CNC(=O)C(CCc1ccccc1)CCc1ccccc1 [Example 3, (S)—N-(2,4-diaminobutyl)-2-phenethyl-4-phenylbutanamide] | 8 |
| NCCC[C@H](N)CNC(=O)C(c1ccccc1)c1ccccc1 [Example 8, (S)—N-(2,5-diaminopentyl)-2,2-diphenylacetamide] | 4 |
| NCCC[C@H](N)CNC(=O)C(CCc1ccccc1)Cc1ccccc1 (stereo partly drawn) [Example 6, 2-benzyl-N—((S)-2,5-diaminopentyl)-4-phenylbutanamide] | 4 |
| NC[C@H](N)CNC(=O)C(CCc1ccccc1)CCc1ccccc1 [Example 4, (S)—N-(2,3-diaminopropyl)-2-phenethyl-4-phenylbutanamide] | 1 |
| NC[C@@H](N)CCCNC(=O)C(CCc1ccccc1)CCc1ccccc1 [Example 5, (S)—N-(4,5-diaminopentyl)-2-phenethyl-4-phenylbutanamide] | 2 |
| NCCC[C@H](N)CNC(=O)CCCc1ccccc1 [Example 10, (S)—N-(2,5-diaminopentyl)-4-phenylbutanamide] | 4 |
| COc1ccc(CCC(CCc2ccccc2)C(=O)NC[C@@H](N)CCCN)cc1 (stereo partly shown) [Example 11] | 4 |
| NCCC[C@H](N)CNC(=O)CC(CCc1ccccc1)CCc1ccccc1 [Example 13, (S)—N-(2,5-diaminopentyl)-3-phenethyl-5-phenylpentanamide] | 512 |
| NCCC[C@H](N)CNC(=O)CC(Cc1ccccc1)Cc1ccccc1 [Example 12, (S)-3-Benzyl-N-(2,5-diaminopentyl)-4-phenylbutanamide] | 16 |
| NCCC[C@@H](N)CNC(=O)C(CCc1ccccc1)CCc1ccccc1 [Example 2, (R)—N-(2,5-diaminopentyl)-2-phenethyl-4-phenylbutanamide] | 64 |
